In doi:10.1101/2021.08.02.454818v1 (biorxiv, 2021):
pKd: −log10 of the molar value.

Target: T1, CdRelQ (Clostridioides difficile, UniProt A0A9R0BI07)
T1 sequence (A0A9R0BI07 1-270): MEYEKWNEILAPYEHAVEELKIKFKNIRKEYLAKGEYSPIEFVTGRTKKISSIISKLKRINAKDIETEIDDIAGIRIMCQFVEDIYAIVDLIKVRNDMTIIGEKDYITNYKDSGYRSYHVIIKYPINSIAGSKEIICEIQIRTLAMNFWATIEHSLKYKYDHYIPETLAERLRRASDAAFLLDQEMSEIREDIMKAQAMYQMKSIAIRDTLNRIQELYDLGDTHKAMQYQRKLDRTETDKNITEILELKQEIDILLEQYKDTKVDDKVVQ
Experiment: isothermal titration calorimetry, single-binding-site model

SMILES | pKd
Nc1nc2c(ncn2[C@@H]2O[C@H](COP(=O)(O)OP(=O)(O)O)[C@@H](O)[C@H]2O)c(=O)[nH]1 [GDP] | 3.31
Nc1nc2c(ncn2[C@@H]2O[C@H](COP(=O)(O)OP(=O)(O)OP(=O)(O)O)[C@@H](O)[C@H]2O)c(=O)[nH]1 [GTP] | 4.69
